In publication PMC10366102, “Dose escalation and expansion cohorts in patients with advanced breast cancer in a Phase I study of the CDK7-inhibitor samuraciclib” (Nature Communications, 2023):
Where “and” joins values, the source holds several entries; their conditions need not be identical. Equal values may be shown once.

How the values were obtained:
[1] = parameters: method as in ref IB; details: human microsomes and hepatocytes in vitro; ref IB; cited from earlier work
[2] = system: patient-derived xenograft models of TNBC; parameters: method as in Bahl et al, 2017; details: ref Bahl et al, 2017; cited from earlier work
[3] = system: human peripheral blood lymphocytes; parameters: method as in ref IB; details: ref IB; cited from earlier work
[4] = system: advanced solid malignancies; assay: Module 1A anti-tumor activity (RECIST V1.1, PSA); format: in vivo, human
Description: treatment RECIST assessment. […]
number of patients in the particular analysis population. Duration of response (DoR) was defined as the time from documentation of tumor response to disease progression. Progression-free survival (PFS) was […]
cause, whichever occurred first. Efficacy results were summarized descriptively and Kaplan -Meier plots provided where appropriate. […]

CYP2C19 = system: CYP2C19; parameters: method as in ref IB; details: human microsomes; ref IB; cited from earlier work
[5] = parameters: method as in ref IB; details: mouse; ref IB; cited from earlier work
clinical = assay: clinical
Procedure: PK samples were taken in Module 1A, Module 1 B-1 and Module 2A (see schedule of assessments in Supplementary Information for timing of PK samples). PK parameters were derived using standard non-compartmental methods.
Samuraciclib pharmacokinetic (PK) analyses were performed using the PK Population (defined as all patients who received at least 1 dose of samuraciclib and who had at least 1 samuraciclib plasma concentration above the lower limit of quantification and no important AEs or protocol deviations or other event that could have impacted the PK analysis). PK parameters were derived using standard non-compartmental methods, with graphical presentations of PK data as appropriate. Samuraciclib plasma concentrations and derived PK parameters were summarized by dose level. Parameters following single and multiple dosing were summarized separately. Appropriate statistics were used to summarize plasma concentrations and PK parameters. […]

CYP2D6 = system: CYP2D6; parameters: method as in ref IB; details: human microsomes; ref IB; cited from earlier work
MCF7 cell line = assay: Antibody validation, immunohistochemistry of treated cells, pCDK1/2/3; format: cell-based, human; details: MCF7 cell line treated with samuraciclib
Procedure: SUPPLEMENTARY TABLE 12: ANTIBODIES USED
Antibody Application Supplier & Description Dilution/ Validation […]
RNA pol II Immunohistoche Abcam Rabbit Immuno- Immunohistochemistry: pSer5 mistry (Fig 3); ab193467 monoclonal histochemistry: Positive nuclear staining Flow cytometry [EPR19015] to 1 in 8000 in normal spleen
(Supplementary RNA 0.02 µg/mL samples. Significant
Figure 5) polymerase II reduction in staining in CTD repeat Flow cytometry: MCF7 cell line treated
YSPTSPS 1 in 100 with samuraciclib. […]
intensity of labelling in […]
pCDK1/2/ Immunohistoche Abcam Rabbit 1 in 500 Immunohistochemistry:
3 mistry (Fig 3) ab201008 monoclonal 1.2 μg/mL Positive nuclear staining [EPR19546] to in normal tonsil samples.
T161) + CDK2 staining in MCF7 cell
(phospho T160) line treated with
Goat anti- Flow cytometry Abcam Polyclonal goat 1 in 1000 Flow cytometry: No Rabbit IgG (Supplementary ab150077 anti-rabbit IgG 2.0 μg/mL significant binding to H&L Figure 5) H&L peripheral blood
AlexaFluor conjugated to mononucleated cells in 488 AlexaFluor 488 absence of primary

CYP1A2 = system: CYP1A2; parameters: method as in ref IB; details: human microsomes; ref IB; cited from earlier work
[6] = Module 1A, 36 evaluable patients
[7] = two castrate-resistant prostate cancer patients

CC(C)c1cnn2c(NCc3ccccc3)cc(NC[C@H]3CCNC[C@@H]3O)nc12 [samuraciclib, Samuraciclib]
Metabolic stability [1]: metabolically stable | Activity in vivo [2]: encouraging activity | Genotoxicity in micronucleus tests [3]: Low potential for genotoxicity | Best change in lesion size on CT scan ([4]; 1 colorectal cancer patient, 120 mg): -21% | Decline in cancer antigen CA 15-3 ([4]; 1 patient with HR-positive BC, interim): 30% | Duration of stable disease ([4]; 1 patient, HR-positive BC, 240 mg, ongoing): […] | Duration of stable disease ([4]; 1 patient, castrate-refractory prostate cancer, 240 mg, cut-off 24-September-2018): […] | Duration of stable disease ([4]; 1 patient, castrate-refractory prostate cancer, 360 mg, ongoing): […] | Duration of stable disease ([4]; 1 patient, chondrosarcoma, 360 mg, ongoing): […] | Duration of stable disease ([4]; 1 patient, oesophageal cancer, 240 mg): […] | Duration of stable disease ([4]; 1 patient, small-cell lung cancer, 240 mg): […] | Decline in PSA ([4]; 2/2 patients with castrate-refractory prostate cancer, interim, listed as CT7001): 45% and 30% | Duration of stable disease ([4]; 2 patients, colorectal cancer, 120 mg, each): […] | Best objective response: Complete response ([4]; Module 1A N = 36): 0 n (%) | Best objective response: Partial response ([4]; Module 1A N = 36): 1 (2.8) n (%) | Best objective response: Progressive disease ([4]; Module 1A N = 36): 17 (47.2) n (%) | Best objective response: Stable disease ([4]; Module 1A N = 36): […] | Disease control rate ([4]; Module 1A N = 36): 19 (52.8) n (%) | Disease control rate [4, 6]: 53% and 52.8% | Patients maintaining stable disease ≥ 12 weeks [4, 6]: 38.9% | Duration of partial response ([4]; heavily pre-treated HR+ breast cancer patient, 240 mg OD monotherapy): […] | Duration of PSA reduction [4, 7]: […] | Reduction in PSA compared to baseline [4, 7]: 28% and 44% | IC50 (CYP2C19): […] | Oral bioavailability [5]: good oral bioavailability | Apparent clearance (clinical; Module 1A): moderate to high | Geometric mean accumulation ratio at steady-state (clinical; both, human, in vivo): […] | Time to steady state (clinical; both, human, in vivo): 8 to 15 days | Tmax (clinical; both, human, in vivo): 1.5 to 4 h | half-life (clinical; both, human, in vivo): ~75 h | half-life (clinical; both, human, in vivo, 180 mg): 54.8 to 82.3 h | half-life (clinical; both, human, in vivo, 480 mg): 30 to 38 h | Distribution (clinical; in vivo): extensively distributed | Time dependence of PK (clinical; in vivo): time independent | IC50 (CYP2D6): […] | pCDK1/2/3 staining (MCF7 cell line): Significant reduction in | IC50 (CYP1A2): […]
